Test results as given in US20210323914A1, “IONIZABLE CATIONIC LIPID FOR RNA DELIVERY” (Arcturus Therapeutics, Inc., priority 2017, published 2021).
“And” between values parts separate entries of the source, which are not always exact repeats. Identical values can stand only once.

Legend:
[1] = test system: Factor VII; experiment: In vivo mouse Factor VII siRNA knockdown with lipid nanoparticles; design: species or system C57BL/6 mice; settings: intravenous, mice, 48 hours
Excerpt: The first pair of numbers denotes the number of carbons in the ester, including the carbonyl, for L1 and L2; the pair of numbers in the parenthesis denotes the number of carbons in each branch of the branched alkyl, R1 or if R2 is also branched, R1/R2 (an asterisk denotes a double bond); the number of carbons in R3 is given; and the last line denotes the substitution for R4 and R5. The ATX number is given for reference herein. Calculated Log D values (c-Log D) and calculated pKa (c-pKa) values are given, as well as measured pKa in parenthesis (measured in the Formulation milieu). The c-Log D and c-pKa values are generated by ACD Labs Structure Designer v12.0. Bioactivity is percentage in vivo Factor VII knockdown at a dose of 0.03 mg/kg, unless otherwise designated.
Using a liver-directed in vivo screen of the liposome libraries, a series of compounds were tested that facilitate high levels of siRNA mediated gene silencing in hepatocytes, the cells comprising the liver parenchyma. Factor VII, a blood-clotting factor, is a suitable target gene for assaying functional siRNA delivery to liver. Because this factor is produced specifically in hepatocytes, gene silencing indicates successful delivery to parenchyma, as opposed to delivery to the cells of the reticulo-endothelial system (e.g., Kupffer cells). Furthermore, Factor VII is a secreted protein that can be readily measured in serum, obviating the need to euthanize animals. Silencing at the mRNA level can be readily determined by measuring levels of protein. This is because the protein's short half-life (2-5 hour). Compositions with siRNA directed to […] were Formulated with the lipid, and comparator sample phosphate-buffered saline (PBS). Female C57BL/6 mice (6-8 week old) were used for FVII siRNA knockdown (KD) experiments.
All Formulations were administered intravenously via tail vein injection at a dose of 0.03 and 0.1 mg/kg at a dosing volume of […]. Terminal blood collection was performed via cardiac puncture under 2% isoflurane at 48 hours after Formulation injections. Blood was collected into 0.109 M citrate buffer tube and processed by centrifugation at 1200 G for 10 min. Plasma was collected and Factor VII protein levels were analyzed by chromogenic assay (Biophen FVII, Aniara Corporation). A standard curve was constructed using samples from PBS-injected mice and relative Factor VII expression was determined by comparing treated groups to untreated PBS control.

[2] = Measured pKa of cationic lipids in LNP or micellar formulations by TNS fluorescence; type: physicochemical; settings: for pKa / (pKa) measured pKa: measured in the Formulation milieu, TNS fluorescence, 1 mM total lipids; for Δ measured pKa vs ATX-0002: change on shortening the ester
Description: pKa of cationic lipids in LNP or micellar Formulations were measured by the procedure of Jayaraman, 2012, Angew. Chem. Int. Ed., 51:8529-33, hereby incorporated by reference. Lipid micelles or LNPs are diluted to 1 mM total lipids in universal buffer with a pH range between 3 and 12 in presence of 0.06 mg/mL 6-(p-toluidino)-2-naphthalenesulfonic acid sodium salt (TNS) reagent (Sigma Aldrich), a pH sensitive fluorescence probe. The anionic TNS molecule fluoresces when associated with the surface of positively charged membranes but is not fluorescent when free in solution, allowing measurement of pKa. The TNS signal is measured on a spectral plate reader. The TNS signal is plotted as function of the pH and analyzed using a non-linear (Boltzman) to determine the pKa.
Reagents used in the assay include • Hepes free acid, CAS: 7365-45-9 (VWR, 0511-1KG or equivalent) • MES, HPLC grade: (Sigma 105228-100G or equivalent) • Ammonium acetate, HPLC grade: (Sigma 90335-100 mL or equivalent) • Sodium chloride, HPLC grade (VWR EM-MX0475-1 or equivalent) • TNS (Sigma-Aldrich T9792-250 mg or equivalent) • Hydrochloric acid • DMSO • DPBS without calcium and magnesium (GE, SH30028.02 or equivalent) • H2O, HPLC grade (OmniSolv, WX0004-1 or equivalent)
To prepare a stock solution of Universal Buffer (UB) in a polystyrene sterile storage bottle, prepare 1 L using the following table.
Reagents are sterile filtered through a 0.2 μm filter. Preparation of UB solution includes adding 5 mL of 1 M HCl to a 350 mL stock solution.
To prepare a pH ladder, centrifuge tubes (50 mL) with 20 mL UB buffer are used. (pH ˜3) and differing amounts of 2 N NaOH. Stock solutions of TNS at 1 mg/mL in DMSO. 60 μL of TNS at 1 mg/mL is added to 940 μL water to reach a working solution concentration of 0.06 mg/mL. Five test samples, 1 mL of LNP sample in PBS at 1 mM total lipid, and 1 reference sample are analyzed per plate. Samples at different pH values are prepared in wells in which 25 μL of 0.06 mg/mL TNS is added. 15 μL of test samples is added per well. The microplate is incubated for 15 minutes at room temperature in the dark. TNS template can be used to format data from the plate reader. Perform non-linear (Boltzman) regression analysis of the samples in Origin Pro 8 or equivalent software.

Compound	Bioactivity: percentage in vivo Factor VII knockdown ([1]; dose 0.1 mg/kg)	pKa [2]	Bioactivity: percentage in vivo Factor VII knockdown ([1]; dose 0.03 mg/kg)	Factor VII knockdown activity compared with ATX-002 (FIG. 18) ([1]; both at 0.03 and 0.1 mg/kg)	Δ measured pKa vs ATX-0002 [2]	(pKa) measured pKa [2]
CCCCCC(CCCCC)OC(=O)CCCN(CCCC(=O)OC(CCCCC)CCCCC)C(=O)SCCCN(C)C	14 (0.1 mg/ kg) percentage	6.8	–	–	–	–
CCCCCC/C=C\COC(=O)CCCCCN(CCCCCC(=O)OC(CCCCCCC)CCCCCCC)C(=O)SCCN(C)C	–	5.93	91 percentage	–	–	–
CCCCCCCC(CCCCCCC)OC(=O)CCCN(CCCC(=O)OC(CCCCCCC)CCCCCCC)C(=O)SCCCN(C)C	–	6.38	99 percentage	–	–	–
CCC/C=C/CCC(CC/C=C/CCC)OC(=O)CCCN(CCCCCC(=O)OC/C=C\CCCCCC)C(=O)SCCN(C)C	–	5.93	75 percentage	–	–	–
CCCCCC/C=C\COC(=O)CCCCCCCN(CCCCCCCC(=O)OC(CCCCCCC)CCCCCCC)C(=O)SCCN(C)C [ATX-0097]	–	5.89	71 percentage	–	–	–
CCCCCC/C=C\COC(=O)CCCCCCCN(CCCCCCCC(=O)OC(CCCCC)CCCCC)C(=O)SCCN(C)C	–	5.81	68 percentage	–	–	–
CCCCCC/C=C\COC(=O)CCCCCCCN(CCCC(=O)OC(CCCCCC)CCCCCC)C(=O)SCCN(C)C	–	5.61	63 percentage	–	–	–
CCCCCC/C=C\COC(=O)CCCN(CCCC(=O)OC(CCCCCCC)CCCCCCCC)C(=O)SCCCN(CC)CC (centres unmarked)	–	6.65	93 percentage	–	–	–
CCC/C=C/CCC(CC/C=C/CCC)OC(=O)CCCCCN(CCCCCC(=O)OC/C=C\CCCCCC)C(=O)SCCN(C)C	–	5.94	82 percentage	–	–	–
CCCCCCCC(CCCCCCC)OC(=O)CCCN(CCCC(=O)OC(CCCCCCC)CCCCCCC)C(=O)SCCCN(CC)CC	–	6.31	97 percentage	–	–	–
CCCCCC/C=C\COC(=O)CCCN(CCCC(=O)OC(CCCCCC)CCCCCCC)C(=O)SCCN(C)C (centres unmarked) [ATX-0058]	–	5.95	86 percentage	substantially more effective than ATX-002	no impact	–
CCCCCC/C=C\COC(=O)CCCN(CC(=O)OC(CCCCCCC)CCCCCCC)C(=O)SCCCN(CC)CC	–	6.53	70 percentage	–	–	–
CCCCCC/C=C\COC(=O)CCCN(CCCC(=O)OC(CCCCCCC)CCCCCCC)C(=O)SCCCN(CC)CC	–	6.66	96 percentage	–	–	–
CCCCCC/C=C\COC(=O)CCCCCN(CCCC(=O)OC(CCCCCCCC)CCCCCCCC)C(=O)SCCN(C)C	–	5.38	81 percentage	–	–	–
CCCCCC/C=C\COC(=O)CCCCCCCN(CCCCCCCC(=O)OC(CCCCCC)CCCCCC)C(=O)SCCN(C)C [ATX-0093]	–	5.79	70 percentage	–	–	–
CCCCCC/C=C\COC(=O)CCCCCN(CCCCCC(=O)OC(CCCCCCCC)CCCCCCCC)C(=O)SCCN(C)C	–	5.82	85 percentage	–	–	–
CCCCCC/C=C\COC(=O)CCCCCN(CCC(=O)OC(CCCCCCC)CCCCCCC)C(=O)SCCN(C)C [drawing 82]	–	5.77	43 percentage	–	–	–
CCCCCC/C=C\COC(=O)CN(CC(=O)OC(CCCCC)CCCCC)C(=O)SCCN(C)C [ATX-0063]	–	5.39	0 percentage	–	−0.7	–

Compound	Bioactivity: percentage in vivo Factor VII knockdown ([1]; dose 0.1 mg/kg)	pKa [2]	Bioactivity: percentage in vivo Factor VII knockdown ([1]; dose 0.03 mg/kg)	Factor VII knockdown activity compared with ATX-002 (FIG. 18) ([1]; both at 0.03 and 0.1 mg/kg)	Δ measured pKa vs ATX-0002 [2]	(pKa) measured pKa [2]
CCCCCC/C=C\COC(=O)CCCN(CCCC(=O)OC(CCCCCCCC)CCCCCCCC)C(=O)SCCCN(CC)CC	–	6.58	75 percentage	–	–	–
CCCCCCCC(CCCCCCC)OC(=O)CN(CC(=O)OC(CCCCCCC)CCCCCCC)C(=O)SCCCN(CC)CC [ATX-0134]	–	5.62	25 percentage	–	–	–
CCC/C=C/CCC(CC/C=C/CCC)OC(=O)CCCN(CCCC(=O)OC/C=C\CCCCCC)C(=O)SCCN(C)C	–	6	72 percentage	–	–	–
CCCCCC/C=C\COC(=O)CN(CC(=O)OC(CCCCCCCC)CCCCCCCC)C(=O)SCCN(C)C [ATX-0061]	–	5.13	0 percentage	–	−0.90	–
CCCCCC(CCCCC)OC(=O)CN(CC(=O)OC(CCCCC)CCCCC)C(=O)SCCCN(C)C [drawing 52]	–	–	0 percentage	–	–	6.28 and 6.17
CCCCCC/C=C\COC(=O)CN(CC(=O)OC(CCCCCCC)CCCCCCCC)C(=O)SCCN(C)C (centres unmarked) [ATX-0064]	–	5.14	0 percentage	–	−0.90	–
CCCCCC/C=C\COC(=O)CCCN(CC(=O)OC(CCCCCCC)CCCCCCC)C(=O)SCCN(C)C	–	5.83	40 percentage	–	–	–
CCCCCCCC(CCCCCCC)OC(=O)CN(CC(=O)OC(CCCCCCC)CCCCCCC)C(=O)SCCCN(C)C	–	5.68	25 percentage	–	–	–
CCCCCC/C=C\COC(=O)CCCN(CC(=O)OC(CCCCCCC)CCCCCCC)C(=O)SCCCN(C)C	–	6.85	53 percentage	–	–	–
CCCCCC/C=C\COC(=O)CCCCCCCN(CCCC(=O)OC(CCCCCCC)CCCCCCC)C(=O)SCCN(C)C	–	5.38	73 percentage	–	–	–
CCCCCC(CCCCC)OC(=O)CN(CC(=O)OC(CCCCC)CCCCC)C(=O)SCCCN(C)C [drawing 51]	–	6.28	0 percentage	–	–	6.17
CCC/C=C/CCC(CC/C=C/CCC)OC(=O)CCCCCCN(CCCCCCC(=O)OC/C=C\CCCCCC)C(=O)SCCN(C)C	–	5.68	67 percentage	–	–	–
CCCCCC/C=C\COC(=O)CCCCCN(CCCCC(=O)OC(CCCCCCC)CCCCCCC)C(=O)SCCN(C)C	–	5.9	90 percentage	–	–	–
CCCCCCC(CCCCC)OC(=O)CCCN(CCCCC(=O)OC(CCCCC)CCCCC)C(=O)SCCN(C)C (centres unmarked) [ATX-0085]	–	–	56 percentage	–	–	–
CCCCCC/C=C\COC(=O)CN(CC(=O)OC(CCCCCCCC)CCCCCCCC)C(=O)SCCCN(C)C	–	6.38	97 percentage	–	–	–
CCCCCC/C=C\COC(=O)CN(CC(=O)OC(CCCCCCC)CCCCCCC)C(=O)SCCCN(C)C	–	6.44	62 percentage	–	–	–
CCCCCC(CCCCC)OC(=O)CN(CC(=O)OC(CCCCC)CCCCC)C(=O)SCCCN(CC)CC	–	6.21	–	–	–	–
